Reference: US20260008784A1 (VASTHERA CO., LTD., priority 2022, published 2026)

Experiments:
[1] = test system: SuHx rat model of pulmonary arterial hypertension; test: Sugen/hypoxia (SuHx) rat model of pulmonary arterial hypertension; assay type: in vivo; settings: P.O., once daily, 0.1 mg/kg, 5 weeks; for RV hypertrophy (Fulton's index) / Right ventricular systolic pressure (RVSP): compared to vehicle control group, FIG. 7
Procedure: The rat study protocol was approved by the Institutional Animal Care and Use Committee of the Ewha Womans University, Republic of Korea, and conforms to the ARRIVE guidelines. Six-week-old rats were acclimatized for one week in the laboratory. Then, Sugen 5416 (Sigma Aldrich) was subcutaneously injected at a dose of 20 mg/kg. The administered subjects were maintained in a normobaric hypoxic (10% O2) chamber (A chamber, Biosphenix) for 3 weeks. Rats were transferred to normoxia and orally administered with either control vehicle or test compounds for additional 5 weeks (P.O., once daily, 0.1 mg per kg weight).
Right ventricular systolic pressure (RVSP) was measured by […] using a curved catheter equipped with PowerLab2/26 device (AD Instruments, UK). Rats were anesthetized with 2% isoflurane inhalation. A catheter was inserted through the right jugular vein, the pressure was measured for 10 seconds with stabilized pattern. After […], rats were perfused with saline, and the heart was carefully removed. The removed heart was dissected into the right ventricle (RV), the rest of the septum (S; septum), and the left ventricle (LV). Each piece of heart was weighed using a microbalance. The RV/(LV+S) value was calculated and represented as a right ventricular hypertrophy index (Fulton's index).
Rats were anesthetized with 2% isoflurane inhalation and subjected to transcardiac perfusion-fixation with heparinized saline solution containing […]. Then, left lung lobes were incised and fixed in 10% NBF for 3 days. The fixed tissues were paraffin-embedded and sectioned using a rotary microtome (Leica HistoCore MULTICUT). Two serial tissue sections (4 μm thick) were placed a slide glass and stained with hematoxylin and eosin (HE). For analysis, ˜100 pulmonary arteries (diameter 20-100 μm) per tissue section were chosen for measurement. The luminal, internal elastic laminal, and external elastic laminal areas were quantified using NIH ImageJ v1.62. The intimal and medial areas were determined by subtraction of the luminal area from the internal elastic area and by subtracting the internal elastic area from the external elastic area. The values were averaged and used for calculating pulmonary arterial vessel thickness.
Paraffin sections were blocked with 5% normal donkey serum (Vector Laboratories) in PBST (PBS solution of 0.3% Triton X-100) for 1 h at room temperature. Thereafter, lung tissue sections were incubated with […] for Alexa Fluor 568-conjugated smooth muscle actin (α-SMA; 1:300 dilution) and Alexa Fluor 488-conjugated von Willebrand Factor (vWF; 1:200 dilution) at 4° C. for 12 h. Subsequently, nuclei were counterstained with DAPI. Fluorescence images were recorded in random regions of at least 10 pulmonary artery vessels (diameter 20-100 um) per tissue section at a screen magnification of 60× using an LSM 880 confocal microscope equipped with argon and helium-neon lasers.
The therapeutic effect of new compounds on pulmonary arterial hypertension was evaluated in a preclinical SuHx rat model. For establishing PAH model, rats were administered with Sugen (VEGFR2 inhibitor) and placed in a normobaric hypoxic condition (10% O2) for 3 weeks. Rats were moved to normoxic condition and orally administered with control vehicle or compound 1 or 8 (P.O., once daily, 0.1 mg/kg) for 5 weeks. Thereafter, right ventricular systolic pressure (RVSP) and right ventricular hypertrophy (Fulton's index) were measured at the end of treatment.

[2] = in vitro; settings: human
Procedure: (§2) For cytotoxicity analysis, human aortic endothelial cells (HAEC) and smooth muscle cells (HASMC) were seeded in a 96-well culture plate at density of 4000 cells/well in a final volume of 100 μL. Cells were cultured for 24 h and serum-starved for an additional 18 h. Test compounds were serially diluted with EBM-2 culture medium, added to the plate at 100 μL/well, and further incubated for 24 h. The number of viable cells was measured using the WST-1 cell viability assay kit (Roche Diagnostics, USA). Cell number was expressed as absorbance values at 450 nm after subtracting the turbidity value at 600 nm. The absorbance values from three replicate wells were averaged.
(§3) After treatment with ascending concentrations of each compound, the concentration of test compound corresponding to 50% cell viability (CC50) was measured.

[3] = in vitro; settings: human; remark: listed apart in the source
Procedure: as §2, §3

[4] = test system: PDGF-induced tyrosine phosphorylation and PLC-γ1 phosphorylation in PASMC; test: Immunoblot of PDGF-mediated signaling in PrxII knock-down PASMC; assay type: cell-based, human; settings: PASMCs, PDGF stimulation, FIG. 3
Procedure: (§1) Cells were quickly washed in ice-cold phosphate-buffered saline (PBS) and lysed in extraction buffer containing 20 mM Hepes (pH 7.0), 1% Triton X-100, 150 mM NaCl, 10% glycerol, 1 mM EDTA, 2 mM EGTA, and 1 mM DTT, 5 mM Na3VO4, 5 mM NaF, 1 mM AEBSF, aprotinin (5 μg/mL), and leupeptin (5 μg/mL). After cen-trifugation at 12,000×g, the clarified cell extracts were used for immunoblotting. For re-blotting, the immunoblots were retrieved in a solution of 67 mM Tris (pH 6.7), 2% SDS, and 100 mM 2-mercaptoethanol at 60° C. for 30 min to remove antibodies and rinsed three times with a Tris-buffered saline (TBS) solution containing 1% Triton X-100. The retrieved membranes were subjected to new immunoblotting.
In human aortic smooth muscle cell (HASMC) and human pulmonary artery smooth muscle cell (PASMC) in which PrxII was knocked out by transfecting the PrxII siRNA, the ability of test compounds to replace the cellular function of PrxII was evaluated. That is, the efficacy of the new compounds was verified in terms of signaling pathways induced by PDGF that regulates the growth and migration of vascular smooth muscle cells in the aorta and pulmonary artery. Activation of PDGF-induced signaling pathway was analyzed by an immunoblot method using an antibody that specifically recognizes phosphorylation of Tyr 857, which is a major phosphorylation site on PDGF receptor (PDGFRβ).

[5] = test system: VEGF-induced tyrosine phosphorylation and ERK2 phosphorylation in PAEC; test: Immunoblot of VEGF-mediated signaling in PrxII knock-down PAEC; assay type: cell-based, human; settings: PAECs, VEGF stimulation, FIG. 6
Procedure: as §1
In human aortic endothelial cell (HAEC) and human pulmonary artery endothelial cell (PAEC) in which PrxII was knocked out by transfecting the PrxII siRNA, the ability of test compounds to replace the cellular function of PrxII was evaluated. That is, the efficacy of the new compounds was verified in terms of signaling pathways induced by VEGF that regulates the growth and migration of vascular endothelial cells in the aorta and pulmonary artery. Activation of VEGF-induced signaling pathway was analyzed by an immunoblot method using an antibody that specifically recognizes phosphorylation of Tyr 1175, which is a major phosphorylation site on VEGF receptor-2 (VEGFR2).

CN1C(=O)C2(C)SSCC1C(=O)N2C (centres unmarked) [Compound 1, 1,6,8-trimethyl-2,3-dithia-6,8-diazabicyclo[3.2.2]nonane-7,9-dione]
Pulmonary arterial vessel occlusion (histology) ([1]; FIG. 8): widens the pulmonary arterial vessels
RV hypertrophy (Fulton's index) [1]: significantly reduces
Right ventricular systolic pressure (RVSP) [1]: significantly reduces
Endothelial layer (vWF-labeled ECs) in pulmonary arterial vessels ([1]; immunostaining, FIG. 9): induces the recovery of endothelial layer
Medial thickness (SMA-labeled SMCs) in pulmonary arterial vessels ([1]; immunostaining, FIG. 9): reduction of medial thickness
CC50 [2]: > 500 µM
CC50 [3]: > 500 µM

O=C1C2CSSC3(COCCN13)C(=O)N2Cc1ccccc1 (centres unmarked) [Compound 8, 12-benzyltetrahydro-5H,10H-4,10a-(epiminomethano)[1,4]oxazino[3,4-c][1,2,4]dithia zepine-5,11-dione]
Effect on total tyrosine phosphorylation and phosphorylation of signaling proteins downstream of PDGFRβ [4]: significantly inhibits the protein phosphorylation
Effect on total tyrosine phosphorylation and phosphorylation of signaling proteins downstream of VEGFR2 [5]: significantly inhibits the protein phosphorylation
RV hypertrophy (Fulton's index) [1]: significantly reduces
Right ventricular systolic pressure (RVSP) [1]: significantly reduces
